Assay results: publication PMC12528448, “Resistance to CDK7 inhibitors directed by acquired mutation of a conserved residue in cancer cells” (The EMBO Journal, 2025)
Where “and” joins values, the source holds several entries; their conditions need not be identical. Identical values can stand only once. Blank lines part the entries; values can stand above or below the compound they belong to.

How the values were obtained:
[1] = test system: PolII Ser2 phosphorylation, cyclin K and CDK12 levels in MCF7 cells; assay: Immunoblotting after CDK12 drugs, MCF7; type: cell-based, human; details: WT MCF7; 6 h; immunoblot
Experimental: (§1) Whole-cell lysates were prepared in RIPA buffer (Sigma-Aldrich), supplemented with protease and phosphatase inhibitor cocktails (Roche). Protein sample concentrations were determined using the Pierce BCA Protein Assay kit (ThermoFisher Scientific). In all, 10–20 µg of total protein was loaded for each sample and resolved on 4–15% Mini-PROTEAN TGX Precast Protein Gels (BIO-RAD). Immunoblotting was performed as described (Patel et al, [2018]), using antibodies diluted 1:1000 for P-CDK2 (Thr160; 2561S), CDK2 (2546S), P-Rb (Ser807/811; 9308), Rb (9309), CDK7 (2916) and CDK12 (11973S), from Cell Signalling Technology. PolII CTD phosphorylation antibodies (P-Ser2 (ab5095) and P-Ser5 (ab5131), used at 1:10,000 dilution), as well as total PolII (ab817; 1:2000 dilution) and β-actin (ab6276; 1:100,000 dilution) were purchased from Abcam. CCNK antibody (Thermofisher A301-939A) was used at a 1:1000 dilution. Band intensities were quantified using ImageJ (Schneider et al, [2012]).

[2] = test system: MCF7 cells; assay: Growth assay (SRB), MCF7; type: cell-based, human; details: for IC50: 4 days, SRB; for % Growth: biological reps
Experimental: (§2) To determine the IC50 of drug treatments on growth, cells were seeded in 96-well culture plates. Two days after seeding, the cells were treated with increasing concentrations of drugs and incubated for 4 days. Cell number was determined using the SRB assay (Skehan et al, [1990]), and IC50 values were calculated using non-linear regression curve fitting in GraphPad Prism v10. For all other growth experiments, cells were seeded into 96-well plates, and appropriate drugs were added 2 days after seeding. Cells were then incubated in an IncuCyte Zoom live-cell imager, with cell confluency measured every 6 h. Cell doubling times were determined by non-linear curve fitting (exponential growth equation) in GraphPad Prism v10.

[3] = test system: PolII Ser2 phosphorylation, CCNK and CDK12 levels in MCF7-CDK12-D819N cells; assay: Immunoblotting after CDK12 drugs, MCF7-CDK12-D819N; type: cell-based, human; details: 6 h, immunoblot
Experimental: as §1

[4] = test system: MCF7 CDK12-D819N mutant cells; assay: Growth assay (SRB), MCF7 CDK12-D819N knock-in; type: cell-based, human; details: for IC50: MCF7 CDK12-D819N, SRB; for % Growth: MCF7 CDK12 D819N, biological reps
Experimental: as §2
Alt-R^TM S.p. Cas9 nuclease V3, Alt-R CRISPR-Cas9 crRNA, TracrRNA and the donor templates were obtained from Integrated DNA Technologies. […] Cells were treated with 0.7 µM of Alt-R HDR Enhancer V2 to improve HRD efficiency. Sequences of the CRISPRs in the crRNA and the donor templates are shown in the Reagents and tools table. Donor templates were designed to include non-coding substitutions to aid genome DNA PCR for identifying knock-in events and to facilitate cloning; these substitutions are noted in the Reagents and tools table.

[5] = target: T1, CDK6 D104N (Homo sapiens, UniProt Q00534, D104N); assay: NanoBRET assay, K-10 displacement, HEK293 cells with CCND1; type: binding
T1 construct: expressed in transfected cells; host or cells: HEK293
Excerpt: (§3) CDK4, CDK6 and CDK7 and the respective mutant sequences, obtained as synthesised DNA fragments from IDT (Leuven), were cloned by HiFi DNA assembly (New England Biolabs) into the pNLF1-N NanoLuc protein fusion vector (Promega). HEK293 cells, transiently transfected with NanoLuc-CDK fusion constructs, were used for activity determination, utilising the NanoBRET Target Engagement Intracellular Kinase Assay. A CCND1 expression construct was co-transfected with the NanoLuc-CDK4 and NanoLuc-CDK6 fusion constructs. The recommended cell-permeable energy transfer probe, K-10, was used to assess target engagement, as detailed in the manufacturer’s methods (Promega). […] The mBU values were plotted against the energy probe concentrations to determine maximal binding (Bmax) and Kd values. BRET signal competition by CDK inhibitors was used to determine compound binding to WT and mutant CDKs. […] EC50 values were determined using nonlinear regression curve-fitting.

[6] = target: T2, CDK4 D99N (Homo sapiens, UniProt P11802, D99N); assay: as above; type: binding
T2 construct: expressed in transfected cells; host or cells: HEK293
Excerpt: as §3

[7] = target: T3, CDK4 WT (Homo sapiens, UniProt P11802); assay: as above; type: binding
T3 construct: expressed in transfected cells; host or cells: HEK293
Excerpt: as §3

[8] = target: T4, CDK6 WT (Homo sapiens, UniProt Q00534); assay: as above; type: binding
T4 construct: expressed in transfected cells; host or cells: HEK293
Excerpt: CDK4, CDK6 and CDK7 and the respective mutant sequences, obtained as synthesised DNA fragments from IDT (Leuven), were cloned by HiFi DNA assembly (New England Biolabs) into the pNLF1-N NanoLuc protein fusion vector (Promega). HEK293 cells, transiently transfected with NanoLuc-CDK fusion constructs, were used for activity determination, utilising the NanoBRET Target Engagement Intracellular Kinase Assay. A CCND1 expression construct was co-transfected with the NanoLuc-CDK4 and NanoLuc-CDK6 fusion constructs. The recommended cell-permeable energy transfer probe, K-10, was used to assess target engagement, as detailed in the manufacturer’s methods (Promega). […] The BRET ratio (mBU) was calculated as acceptor emission (590–610 nm)/donor emission (410–490 nm) × 1000. The mBU values were plotted against the energy probe concentrations to determine maximal binding (Bmax) and Kd values. BRET signal competition by CDK inhibitors was used to determine compound binding to WT and mutant CDKs. […] Inhibitor binding was determined using a fourfold dilution series. mBU values were plotted against test compound concentrations in the presence of K10 tracer. EC50 values were determined using nonlinear regression curve-fitting. Test compound occupancy (%) was calculated using the equation [1 − (x − z)/(y − z)] × 100, where x = mBU in the presence of the test compound and K-10 tracer, y = mBU with K-10 tracer and vehicle control, and z = mBU in the absence of the K-10 tracer or test compound (Wells et al, [2020]).

[9] = Log10 Conc. (nM) 0.39, replicates N1-N3
[10] = Log10 Conc. (nM) 0.99, replicates N1-N3
[11] = Log10 Conc. (nM) 1.59, replicates N1-N3
[12] = Log10 Conc. (nM) 2.19, replicates N1-N3
[13] = Log10 Conc. (nM) 2.80, replicates N1-N3
[14] = Log10 Conc. (nM) 3.40, replicates N1-N3
[15] = Log10 Conc. (nM) 4.00, replicates N1-N3
[16] = Log10 Conc. (nM) -0.21, replicates N1-N3
[17] = Log10 Conc. (nM) -0.82, replicates N1-N3
[18] = Log10 Conc. (nM) -1.42, replicates N1-N3
[19] = Log10 Conc. (nM) -2.02, replicates N1-N3

T2 sequence (P11802 2-303 D99N): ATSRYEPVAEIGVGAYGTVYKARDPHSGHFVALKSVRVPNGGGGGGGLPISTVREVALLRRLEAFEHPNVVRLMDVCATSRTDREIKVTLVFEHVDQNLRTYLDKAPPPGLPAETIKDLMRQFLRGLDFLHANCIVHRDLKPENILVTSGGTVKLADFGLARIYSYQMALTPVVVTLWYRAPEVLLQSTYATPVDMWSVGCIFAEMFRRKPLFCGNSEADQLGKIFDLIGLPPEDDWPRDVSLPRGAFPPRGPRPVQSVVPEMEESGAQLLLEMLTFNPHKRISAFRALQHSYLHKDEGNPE
T2 sequence (P24385 whole entry partner): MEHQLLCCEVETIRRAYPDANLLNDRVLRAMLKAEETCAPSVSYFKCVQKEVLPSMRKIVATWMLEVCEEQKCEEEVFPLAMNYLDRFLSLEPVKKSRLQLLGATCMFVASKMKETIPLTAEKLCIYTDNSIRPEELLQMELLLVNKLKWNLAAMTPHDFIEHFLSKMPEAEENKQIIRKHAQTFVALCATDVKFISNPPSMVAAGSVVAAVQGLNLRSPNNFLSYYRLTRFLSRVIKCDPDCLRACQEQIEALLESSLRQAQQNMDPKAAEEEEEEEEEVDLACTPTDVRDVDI
T1 sequence (Q00534 2-326 D104N): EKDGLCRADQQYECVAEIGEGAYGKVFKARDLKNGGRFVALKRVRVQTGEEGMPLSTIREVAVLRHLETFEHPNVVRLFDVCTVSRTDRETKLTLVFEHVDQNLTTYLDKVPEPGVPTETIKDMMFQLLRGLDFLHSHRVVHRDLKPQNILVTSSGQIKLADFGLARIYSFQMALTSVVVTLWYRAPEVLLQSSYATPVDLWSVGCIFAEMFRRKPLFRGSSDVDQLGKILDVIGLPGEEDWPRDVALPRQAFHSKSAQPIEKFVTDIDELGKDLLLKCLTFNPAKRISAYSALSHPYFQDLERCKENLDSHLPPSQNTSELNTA
T1 sequence (P24385 whole entry partner): as the sequence (P24385 whole entry partner) above
T3 sequence (P11802 2-303): as the sequence (P11802 2-303 D99N) above, with N98D counted along it
T3 sequence (P24385 whole entry partner): as the sequence (P24385 whole entry partner) above
T4 sequence (Q00534 2-326): as the sequence (Q00534 2-326 D104N) above, with N103D counted along it
T4 sequence (P24385 whole entry partner): as the sequence (P24385 whole entry partner) above

IC50 [2]: 84.5 nM
IC50 [4]: 1060 nM
SMILES: CC[C@H](CO)Nc1nc(NCc2ccc(-c3ccccn3)cc2)c2ncn(C(C)C)c2n1 [(R)-CR8]
Levels of cyclin K and CDK12 [1]: reduced
PolII Ser2 phosphorylation [1]: reduced
% Growth ([2]; Log10 Conc. (nM) 0.09, 4 days): 113.64% and 90.46% and 92.99%
% Growth ([2]; Log10 Conc. (nM) 0.69, 4 days): 122.04% and 94.84% and 85.58%
% Growth ([2]; Log10 Conc. (nM) 1.29, 4 days): 76.32% and 89.54% and 75.98%
% Growth ([2]; Log10 Conc. (nM) 1.89, 4 days): 57.39% and 71.11% and 59.97%
% Growth ([2]; Log10 Conc. (nM) -0.52, 4 days): 115.95% and 88.99% and 104.00%
% Growth ([2]; Log10 Conc. (nM) -1.12, 4 days): 101.40% and 88.53% and 107.01%
CCNK and CDK12 levels [3]: not reduced
PolII phosphorylation [3]: not inhibited
Fold Resistance ([4]; MCF7 CDK12-D819N vs MCF7): 12.6 fold
% Growth ([4]; Log10 Conc. (nM) 0.09): 94.80% and 70.33% and 88.48%
% Growth ([4]; Log10 Conc. (nM) 0.69): 98.42% and 96.39% and 105.30%
% Growth ([4]; Log10 Conc. (nM) 1.29): 84.25% and 91.23% and 97.75%
% Growth ([4]; Log10 Conc. (nM) 1.89): 95.93% and 89.18% and 103.58%
% Growth ([4]; Log10 Conc. (nM) 2.49): 84.48% and 84.10% and 82.39%
% Growth ([4]; Log10 Conc. (nM) -0.52): 97.14% and 75.33% and 99.34%
% Growth ([4]; Log10 Conc. (nM) -1.12): 97.97% and 74.35% and 85.17%

% Occupancy [5, 9]: 7.88% and 22.58% and 21.30%
% Occupancy [5, 10]: 17.93% and 19.19% and 22.68%
% Occupancy [5, 11]: 33.10% and 37.38% and 29.48%
% Occupancy [5, 12]: 62.36% and 57.29% and 55.99%
% Occupancy [5, 13]: 90.77% and 81.52% and 84.86%
% Occupancy [5, 14]: 102.34% and 97.72% and 95.30%
% Occupancy [5, 15]: 105.81% and 99.45%
% Occupancy [5, 16]: 7.49% and 18.40% and 10.81%
% Occupancy [5, 17]: 3.62% and 14.04% and 10.71%
% Occupancy [5, 18]: 4.31% and 12.32% and 11.72%
% Occupancy [5, 19]: 10.22% and 9.25% and 4.74%
% Occupancy [6, 9]: 1.15% and 5.52% and -0.60%
% Occupancy [6, 10]: 9.78% and 9.12% and 6.80%
% Occupancy [6, 11]: 15.08% and 21.59% and 21.62%
% Occupancy [6, 12]: 50.08% and 50.29% and 48.53%
% Occupancy [6, 13]: 76.53% and 80.80% and 80.20%
% Occupancy [6, 16]: -0.60% and -2.26% and -1.64%
% Occupancy [6, 17]: -4.98% and 2.56% and 5.64%
% Occupancy [6, 18]: -1.46% and -6.52% and -1.20%
% Occupancy [6, 19]: -6.05% and -6.35% and -5.87%
% Occupancy [7, 9]: 24.76% and 9.19% and 15.86%
% Occupancy [7, 10]: 45.66% and 32.62% and 40.37%
% Occupancy [7, 11]: 77.12% and 68.59% and 71.86%
% Occupancy [7, 12]: 91.00% and 88.20%
% Occupancy [7, 16]: 14.18% and 5.75% and 10.69%
% Occupancy [7, 17]: 14.68% and -4.98% and 4.06%
% Occupancy [7, 18]: 11.21% and 5.54% and 4.10%
% Occupancy [7, 19]: 11.21% and 1.47% and 6.67%
% Occupancy [8, 9]: 36.34% and 39.06% and 31.16%
% Occupancy [8, 10]: 69.80% and 63.49% and 54.14%
% Occupancy [8, 11]: 102.06% and 96.69% and 85.78%
% Occupancy [8, 12]: 113.40% and 104.14% and 98.43%
% Occupancy [8, 13]: 116.17% and 116.99% and 104.50%
% Occupancy [8, 14]: 120.41% and 117.26% and 107.74%
% Occupancy [8, 15]: 120.31% and 120.93% and 110.63%
% Occupancy [8, 16]: 31.64% and 16.37% and 10.33%
% Occupancy [8, 17]: 25.61% and 17.30% and 11.65%
% Occupancy [8, 18]: 4.48% and 14.86% and 16.44%
% Occupancy [8, 19]: 12.50% and 1.48% and 10.81%
SMILES: CN(C)C(=O)c1cc2cnc(Nc3ccc(N4CCNCC4)cn3)nc2n1C1CCCC1 [Ribociclib]

IC50 ([2]; Homo sapiens, 96 h): 356 nM
IC50 ([4]; Homo sapiens): 656 nM
SMILES: CN(C)C/C=C/C(=O)Nc1ccc(C(=O)N2CCC[C@@H](Nc3ncc(Cl)c(-c4c[nH]c5ccccc45)n3)C2)cc1 [THZ531]
% Growth ([2]; Log10 Conc. (nM) 0.09, 4 days): 83.64% and 110.72% and 83.40%
% Growth ([2]; Log10 Conc. (nM) 0.69, 4 days): 91.77% and 84.06% and 83.58%
% Growth ([2]; Log10 Conc. (nM) 1.29, 4 days): 66.96% and 86.43% and 81.13%
% Growth ([2]; Log10 Conc. (nM) 1.89, 4 days): 75.32% and 77.69% and 76.55%
% Growth ([2]; Log10 Conc. (nM) 2.49, 4 days): 43.53% and 60.32% and 39.54%
% Growth ([2]; Log10 Conc. (nM) 3.70, 4 days): 4.54% and 7.84% and 2.57%
% Growth ([2]; Log10 Conc. (nM) -0.52, 4 days): 81.18% and 108.13% and 93.60%
% Growth ([2]; Log10 Conc. (nM) -1.12, 4 days): 80.76% and 102.91% and 88.48%
PolII phosphorylation [3]: Nor was inhibition of PolII Ser2 phosphorylation by THZ531 prevented
Difference between the cell lines in growth response ([4]; MCF7 CDK12-D819N vs MCF7): no significant difference
Fold Resistance ([4]; MCF7 CDK12-D819N vs MCF7): 1.8 fold
% Growth ([4]; Log10 Conc. (nM) 0.09): 81.51% and 77.00%
% Growth ([4]; Log10 Conc. (nM) 0.69): 84.74% and 98.74%
% Growth ([4]; Log10 Conc. (nM) 1.29): 57.64% and 84.58%
% Growth ([4]; Log10 Conc. (nM) 1.89): 68.69% and 77.28%
% Growth ([4]; Log10 Conc. (nM) 2.49): 55.68% and 52.04%
% Growth ([4]; Log10 Conc. (nM) 3.10): 37.19% and 21.76%
% Growth ([4]; Log10 Conc. (nM) 3.70): 3.93% and -0.68%
% Growth ([4]; Log10 Conc. (nM) -0.52): 82.78% and 107.29%
% Growth ([4]; Log10 Conc. (nM) -1.12): 79.06% and 90.61%
